Measurements published in patent US20220220106A1, “QUINOLINE COMPOUNDS AND PHARMACEUTICAL COMPOSITIONS AND USES THEREOF” (Academy of Military Medical Sciences, priority 2019, published 2022).

How the values were obtained:
RD cells = experiment: Detection of cytotoxicity in RD cells (CellTiter-Glo); format: cell-based; conditions: 4 days, CellTiter-Glo, median toxic dose
Summary of the method: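 RD cells (1*10^5/mL) cultured 4 days at 37 °C with 10 compound concentrations from 3-fold dilution of a 400 μM pretreatment solution, final being 0.5 times that. Viability by CellTiter-Glo luminescence versus cell control; TD50 from S-curve fit; SI=TD50/IC50.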

mTOR kinase = molecular target: T1, mTOR kinase (Homo sapiens, UniProt P42345); experiment: In vitro inhibitory activity on mTOR kinase (TR-FRET, GFP-4E-BP1 substrate); format: biochemical; conditions: for IC50: 0.5 μg/mL mTOR, 0.4 μM GFP-4E-BP1, 3 μM ATP
T1 construct: purchased Thermo Fisher PV4753
Experimental: Preparation of Reaction Buffers:
Basic buffer composition: 50 mM (mmol/L) HEPES (pH 7.5), 1 mM EGTA, 0.01% Tween-20, 10 mM MnCl2, 2 mM DTT (diluted from 500 mM before used).
(2) mTOR kinase buffer solution: 1650 μL of 2.5×mTOR kinase buffer solution was composed of 1640.2 μL of 1× basic buffer and 9.8 μL of mTOR (0.21 mg/mL stock solution), and the final concentration was 0.5 μg/mL.
(3) Detection buffer solution: 3960 μL of 2× detection buffer solution was composed of 3797.1 μL of TR-FRET buffer diluent (purchased from Thermo Fisher, catalog number: PV3574), 4.5 μL of Tb-anti-p4E-BP1 antibody (3.49 μM stock solution, purchased from Thermo Fisher, catalog number: PV4757) and 158 μL of EDTA (500 mM stock solution), and the final concentrations were 2 nM Tb-anti-p4E-BP1 antibody and 10 mM EDTA.
(1) 20 μL of 100% DMSO solution containing 5 mM compound to be tested was added to a 96-well plate.
(2) The compound was serially diluted 3 times in DMSO.
(3) 1 μL of the compound in the previous step was taken, diluted with 19 μL of mTOR kinase buffer, and transferred to another 96-well plate.
(4) 4 μL of mTOR kinase solution (purchased from Thermo Fisher, catalog number: PV4753) was added to a 384-well plate.
(5) 2 μL of the compound in G was taken out and added to the 384-well plate with mTOR kinase, and incubated at room temperature for 15 minutes.
(6) 4 μL of substrate solution was added to initiate the reaction.
The final concentrations of mTOR reaction solution were: 0.5 μg/mL mTOR, 0.4 μM GFP-4E-BP1, 3 μM ATP.
The final concentration of the DMSO solution was 1%.
(7) Incubation was performed for 60 minutes at room temperature.
(8) 10 μL of detection buffer was added. The final concentrations were 2 nM Tb-anti-p4E-BP1 antibody and 10 mM EDTA.
(9) Incubation was performed for 30 minutes at room temperature.
(10) TR-FRET value was read on MD5 multi-mode plate reader (Molecular Devices). The excitation wavelength was 340 nm, the emission wavelength 1 was 495 nm, and the emission wavelength 2 was 520 nm. The ratio of 520 nm/495 nm readings was calculated as TR-FRET value.
IC50 of compound was fitted by nonlinear regression equation:
Y=Bottom+(Top-Bottom)/(1+10^((LogIC50-X)*HillSlope));
X: common logarithm value of compound concentration; Y: TR-FRET value (520 nm/495 nm).

[1] = system: Enterovirus 71 (EV71) H strain; experiment: In vitro anti-EV71 activity (antiviral activity in RD cells, CellTiter-Glo); format: cell-based; conditions: for IC50: Enterovirus A, 96 h, EV71 H strain, RD cells, 4 days, CellTiter-Glo, read-out: IC50; for in vitro anti-EV71 activity, in words: EV71, RD cells
Summary of the method: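 RD cells infected with 100TCID50 EV71 in DMEM+2% FBS, with compound in 10-point three-fold dilutions, cultured 4 days at 37° C. Cell viability by CellTiter-Glo luminescence; inhibition rate relative to cell control fitted to S-curve for IC50. TD50 derived likewise; SI=TD50/IC50.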

T1 sequence (P42345 1360-2549 limits assumed): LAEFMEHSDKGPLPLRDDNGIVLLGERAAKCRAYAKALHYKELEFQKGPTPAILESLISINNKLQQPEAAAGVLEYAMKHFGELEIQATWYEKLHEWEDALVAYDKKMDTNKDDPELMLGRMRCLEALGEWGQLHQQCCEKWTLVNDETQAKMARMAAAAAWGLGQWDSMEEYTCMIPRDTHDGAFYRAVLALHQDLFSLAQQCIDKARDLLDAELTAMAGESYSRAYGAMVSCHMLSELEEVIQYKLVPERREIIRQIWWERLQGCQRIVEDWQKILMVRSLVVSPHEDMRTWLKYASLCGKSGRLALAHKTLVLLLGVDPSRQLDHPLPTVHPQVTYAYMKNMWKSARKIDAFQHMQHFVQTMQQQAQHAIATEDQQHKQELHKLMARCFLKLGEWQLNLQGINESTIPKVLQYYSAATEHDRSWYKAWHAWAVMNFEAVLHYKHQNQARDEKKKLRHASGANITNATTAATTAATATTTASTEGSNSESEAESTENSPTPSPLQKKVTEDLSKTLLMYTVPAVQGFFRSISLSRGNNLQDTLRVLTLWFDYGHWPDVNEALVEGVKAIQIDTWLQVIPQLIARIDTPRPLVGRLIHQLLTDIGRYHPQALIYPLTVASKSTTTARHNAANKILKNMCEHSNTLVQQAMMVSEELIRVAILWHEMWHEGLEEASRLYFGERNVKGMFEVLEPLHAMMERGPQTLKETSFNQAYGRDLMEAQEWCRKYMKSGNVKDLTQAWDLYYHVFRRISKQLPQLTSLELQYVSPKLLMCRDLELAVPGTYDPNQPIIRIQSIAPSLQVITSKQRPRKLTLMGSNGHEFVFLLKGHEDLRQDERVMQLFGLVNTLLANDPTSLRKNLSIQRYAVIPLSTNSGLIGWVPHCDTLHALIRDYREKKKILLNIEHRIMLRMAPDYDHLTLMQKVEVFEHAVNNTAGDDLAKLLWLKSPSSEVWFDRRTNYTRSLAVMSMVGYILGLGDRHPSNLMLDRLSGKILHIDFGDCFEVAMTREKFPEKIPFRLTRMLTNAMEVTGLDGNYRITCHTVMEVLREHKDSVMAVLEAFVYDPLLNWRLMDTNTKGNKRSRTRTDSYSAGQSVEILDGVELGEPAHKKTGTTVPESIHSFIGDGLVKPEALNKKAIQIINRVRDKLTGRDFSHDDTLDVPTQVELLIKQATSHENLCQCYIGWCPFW

Q: With `Cc1noc(C)c1-c1ccc2ncc3ccc(=O)n(-c4cccc(C(F)(F)F)c4)c3c2c1` [HTL-7-12, 9-[4-(3,5-dimethyl)isoxazolyl]-2-oxo-1-[3-(trifluoromethyl)phenyl]-1,2-dihydrobenzo[h][1,6]naphthyridine] as the compound, how does the TD50 (RD cells) read?
A: >200 µM

Q: And the IC50 (mTOR kinase)?
A: 1.21 µM

Q: What about the IC50 [1] of the same compound?
A: 36.9 ± 0.41 µM

Q: What about the melting point of the same compound?
A: 121 to 122 °C

Q: Which results are given for `Cc1ccc(-c2ccc3ncc4oc(=O)n(-c5cccc(C(F)(F)F)c5)c4c3c2)cn1` [HTL-5-23, 8-[3-(6-methyl)pyridyl]-1-[3-(trifluoromethyl)phenyl]oxazolo[5,4-c] quinolin-2(1H)-one]?
A: TD50 (RD cells): 16.88 ± 5.46 µM; inhibitory activity on mTOR kinase, in words (mTOR kinase): moderate inhibitory activity; IC50 (mTOR kinase): 0.257 µM; in vitro anti-EV71 activity, in words [1]: moderate inhibitory activity; IC50 [1]: 4.78 ± 1.73 µM; melting point: 299 to 300 °C

Q: With `NC(=O)NC/C=C/c1ccc2ncc3oc(=O)n(-c4cccc(C(F)(F)F)c4)c3c2c1` [HTL-6-34, (E)-8-(3-ureido-propenyl)-1-[3-(trifluoromethyl)phenyl]oxazolo[5,4-c]quinolin-2(1H)-one] as the compound, how does the TD50 (RD cells) read?
A: 66.64 ± 1.17 µM

Q: What about the “inhibitory activity on mTOR kinase, in words” value (“inhibitory activity” below) (mTOR kinase) of the same compound?
A: moderate inhibitory activity

Q: What about the IC50 (mTOR kinase) of the same compound?
A: 0.849 µM

Q: What about the IC50 [1] of the same compound?
A: > 200 µM

Q: For `COc1ncccc1-c1ccc2ncc3ccc(=O)n(-c4cccc(C(F)(F)F)c4)c3c2c1` [HTL-7-02, 9-[3-(2-methoxy)pyridyl]-2-oxo-1-[3-(trifluoromethyl)phenyl]-1,2-dihydrobenzo[h][1,6]naphthyridine], which TD50 (RD cells) is on record?
A: >200 µM

Q: What about the “inhibitory activity” value (mTOR kinase) of the same compound?
A: moderate inhibitory activity

Q: And the IC50 (mTOR kinase)?
A: 0.974 µM

Q: What about the IC50 [1] of the same compound?
A: > 200 µM

Q: Which TD50 (RD cells) does the source give for `CC(=O)/C=C/c1cnc2ccc(-c3ccc(N)cc3)cc2c1Nc1cccc(C(F)(F)F)c1` [HTL-2-35, (E)-6-(4-amino)phenyl-4-[3-(trifluoromethyl)phenyl]aminoquinoline-3-butenone] here?
A: 5.14 ± 1.92 µM

Q: What about the “inhibitory activity” value (mTOR kinase) of the same compound?
A: weak inhibitory activity

Q: What about the IC50 (mTOR kinase) of the same compound?
A: 7.77 µM

Q: And the “in vitro anti-EV71 activity, in words” value [1]?
A: moderate anti-EV71 activity

Q: And the IC50 [1]?
A: 3.7 ± 0.01 µM

Q: What about the melting point of the same compound?
A: 183 to 185 °C

Q: For `Cc1ccc(Nc2ccc3ncc4ccc(=O)n(-c5cccc(C(F)(F)F)c5)c4c3c2)cc1C` [HTL-6-17, 9-(3,4-dimethylphenyl)imino-2-oxo-1-[3-(trifluoromethyl)phenyl]-1,2-dihydrobenzo[h][1,6]naphthyridine], which TD50 (RD cells) is on record?
A: 6.81 ± 1.03 µM

Q: And the IC50 [1]?
A: > 200 µM

Q: What about the melting point of the same compound?
A: 140 to 141 °C

Q: For `CCOc1ccc(-c2ccc3ncc4oc(=O)n(-c5cccc(C(F)(F)F)c5)c4c3c2)cc1` [HTL-5-27, 8-(4-ethoxy)phenyl-1-[3-(trifluoromethyl)phenyl]oxazolo[5,4-c]quinolin-2(1H)-one], which TD50 (RD cells) is on record?
A: >200 µM

Q: What about the IC50 [1] of the same compound?
A: > 200 µM

Q: And the melting point?
A: 254 °C

Q: What does the source list for `CCCCC(=O)Nc1ccc(-c2ccc3ncc4oc(=O)n(-c5cccc(C(F)(F)F)c5)c4c3c2)cn1` [WSX-1-24, 8-[3-(6-valerylamino)pyridyl]-1-[3-(trifluoromethyl)phenyl]oxazolo[5,4-c]quinolin-2(1H)-one]?
A: TD50 (RD cells): 4.27 ± 2.83 µM; IC50 [1]: > 200 µM; melting point: 231 to 232 °C

Q: Which TD50 (RD cells) does the source give for `CC(=O)/C=C/c1cnc2ccc(-c3ccc(F)c(F)c3)cc2c1Nc1cccc(C(F)(F)F)c1` [HTL-3-34, (E)-6-(3,4-difluoro)phenyl-4-[3-(trifluoromethyl)phenyl]aminoquinoline-3-butenone] here?
A: 3.02 ± 0.91 µM

Q: And the IC50 [1]?
A: > 200 µM

Q: What about the melting point of the same compound?
A: 210 to 213 °C

Q: With `CCCc1ccc(-c2ccc3ncc(/C=C/C(C)=O)c(Nc4cccc(C(F)(F)F)c4)c3c2)cc1` [HTL-3-40, (E)-6-(4-propyl)phenyl-4-[3-(trifluoromethyl)phenyl]aminoquinoline-3-butenone] as the compound, how does the TD50 (RD cells) read?
A: 0.83 ± 0.03 µM

Q: What about the IC50 [1] of the same compound?
A: > 200 µM

Q: And the melting point?
A: 166 to 169 °C

Q: Which TD50 (RD cells) does the source give for `O=C(Nc1ccc(-c2ccc3ncc4oc(=O)n(-c5cccc(C(F)(F)F)c5)c4c3c2)cn1)OCc1ccccc1` [HTL-7-23, 8-[3-(6-benzyloxyamido)pyridyl]-1-[3-(trifluoromethyl)phenyl]oxazolo[5,4-c]quinolin-2(1H)-one] here?
A: >200 µM

Q: What about the IC50 [1] of the same compound?
A: > 200 µM

Q: What about the melting point of the same compound?
A: 284 to 286 °C

Q: Which TD50 (RD cells) does the source give for `NC(=O)/C=C/c1ccc2ncc3ccc(=O)n(-c4cccc(C(F)(F)F)c4)c3c2c1` [HTL-7-24, (E)-9-(2-carbamoyl-vinyl)-2-oxo-1-[3-(trifluoromethyl)phenyl]-1,2-dihydrobenzo[h][1,6]naphthyridine] here?
A: 0.15 ± 0.01 µM

Q: What about the “in vitro anti-EV71 activity, in words” value [1] of the same compound?
A: strong inhibitory activity

Q: And the IC50 [1]?
A: 0.09 ± 0.01 µM

Q: And the melting point?
A: 307 to 308 °C

Q: For `CC(=O)Nc1ccc(Nc2ccc3ncc4ccc(=O)n(-c5cccc(C(F)(F)F)c5)c4c3c2)cc1` [HTL-6-27, 9-(4-acetylaminophenyl)imino-2-oxo-1-[3-(trifluoromethyl)phenyl]-1,2-dihydrobenzo[h][1,6]naphthyridine], which TD50 (RD cells) is on record?
A: 10.65 ± 0.57 µM

Q: And the “in vitro anti-EV71 activity, in words” value [1]?
A: moderate activity

Q: What about the IC50 [1] of the same compound?
A: 7.14 ± 3.21 µM

Q: What about the melting point of the same compound?
A: 175 to 177 °C

Q: Which TD50 (RD cells) does the source give for `CCOc1cccc(-c2ccc3ncc(/C=C/C(C)=O)c(Nc4cccc(C(F)(F)F)c4)c3c2)c1` [HTL-3-16, (E)-6-(3-ethoxy)phenyl-4-[3-(trifluoromethyl)phenyl]aminoquinoline-3-butenone] here?
A: 0.83 ± 0.79 µM

Q: And the IC50 [1]?
A: > 200 µM

Q: What about the melting point of the same compound?
A: 184 to 185 °C

Q: Which TD50 (RD cells) does the source give for `CC(C)c1ccc(-c2ccc3ncc4oc(=O)n(-c5cccc(C(F)(F)F)c5)c4c3c2)cc1` [HTL-5-35, 8-(4-isopropyl)phenyl-1-[3-(trifluoromethyl)phenyl]oxazolo[5,4-c]quinolin-2(1H)-one] here?
A: 69.36 ± 0.28 µM

Q: What about the IC50 [1] of the same compound?
A: > 200 µM

Q: And the melting point?
A: 219 to 220 °C

Q: With `COC(=O)/C=C/c1ccc2ncc3oc(=O)n(-c4cccc(C(F)(F)F)c4)c3c2c1` [HTL-6-33, (E)-8-(2-methoxycarbonyl-vinyl)-1-[3-(trifluoromethyl)phenyl]oxazolo[5,4-c]quinolin-2(1H)-one] as the compound, how does the TD50 (RD cells) read?
A: 71.99 ± 0.78 µM

Q: What about the IC50 [1] of the same compound?
A: > 200 µM

Q: What about the melting point of the same compound?
A: 243 to 245 °C
